The text below walks through data of patent US7838498B2, “Benzylic glycoside derivatives and methods of use” (Theracos, Inc., priority 2007, dated 2010).

One assay addresses T1, human SGLT1 (Homo sapiens, UniProt P13866).
T1 construct: Full-length human SGLT1 cDNA on pDream2.1 expression vector was obtained from GenScript Corporation; host or cells: COS-7 cells (American Type Culture Collection)
T1 sequence (P13866 1-664): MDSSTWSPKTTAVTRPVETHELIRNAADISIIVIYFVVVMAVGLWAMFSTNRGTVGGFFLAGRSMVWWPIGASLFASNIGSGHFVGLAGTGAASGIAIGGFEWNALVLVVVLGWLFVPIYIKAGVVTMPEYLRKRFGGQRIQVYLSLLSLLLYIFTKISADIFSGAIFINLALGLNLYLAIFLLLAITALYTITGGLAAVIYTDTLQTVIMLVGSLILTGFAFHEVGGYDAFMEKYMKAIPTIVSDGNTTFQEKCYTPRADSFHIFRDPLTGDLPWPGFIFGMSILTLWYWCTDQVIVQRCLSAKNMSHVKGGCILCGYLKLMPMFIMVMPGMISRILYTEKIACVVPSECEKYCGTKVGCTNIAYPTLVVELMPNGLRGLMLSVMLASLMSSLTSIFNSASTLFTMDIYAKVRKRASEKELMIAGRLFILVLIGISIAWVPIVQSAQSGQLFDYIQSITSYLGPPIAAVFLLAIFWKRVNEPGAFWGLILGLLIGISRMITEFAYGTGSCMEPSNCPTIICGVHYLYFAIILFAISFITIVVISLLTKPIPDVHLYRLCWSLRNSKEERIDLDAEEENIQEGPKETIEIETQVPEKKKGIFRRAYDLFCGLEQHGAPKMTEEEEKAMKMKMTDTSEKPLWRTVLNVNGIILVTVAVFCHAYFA
The assay is described as follows: Methyl-α-D-[U-14C]glucopyranoside uptake assay, COS-7 cells expressing human SGLT1. The conditions noted are these: COS-7 cells expressing human SGLT1, 2 h incubation, without human serum (symbols without parentheses). Type of assay: cell-based. The protocol: Full-length human SGLT1 cDNA on pDream2.1 expression vector was obtained from GenScript Corporation and propagated in Escherichia coli strain DH5α using Luria-Bertani (LB) medium containing ampicillin. Plasmid DNA was isolated using the QIAGEN Plasmid Midi Kit (QIAGEN Inc.). […] Transfected cells were stored in DMEM containing 10% dimethyl sulfoxide (DMSO) at −80° C.
(§1) Cells expressing SGLT1 or SGLT2 were seeded on 96-well ScintiPlate scintillating plates (PerkinElmer, Inc.) in DMEM containing 10% FBS (1×10^5 cells per well in 100 μL medium) incubated at 37° C. under 5% CO2 for 48 h prior to the assay. Cells were washed twice with 150 μL of either sodium buffer (137 mM NaCl, 5.4 mM KCl, 2.8 mM CaCl2, 1.2 mM MgCl2, 10 mM tris(hydroxymethyl)aminomethane/N2-hydroxyethylpiperazine-N′-ethanesulfonic acid [Tris/Hepes], pH 7.2) or sodium-free buffer (137 mM N-methyl-glucamine, 5.4 mM KCl, 2.8 mM CaCl2, 1.2 mM MgCl2, 10 mM Tris/Hepes, pH 7.2). Test compound in 50 μL each of sodium or sodium-free buffer containing 40 μCi/L methyl-α-D-[U-^14C]glucopyranoside (Amersham Biosciences/GE Healthcare), either with (symbols in parentheses) or without (symbols without parentheses) 25% human serum, was added per well of a 96-well plate and incubated at 37° C. with shaking for either 2 h (SGLT1 assay) or 1.5 h (SGLT2 assay). Cells were washed twice with 150 μL of wash buffer (137 mM N-methylglucamine, 10 mM Tris/Hepes, pH 7.2) and methyl-α-D-[U-^14C]glucopyranoside uptake was quantitated using a TopCount scintillation counter (PerkinElmer, Inc.). Sodium-dependent glucopyranoside uptake was measured by subtracting the values obtained with sodium-free buffer from those obtained using sodium buffer (average of triplicate determinations).

The target of a further assay is T2, human SGLT2 (Homo sapiens, UniProt P31639).
T2 construct: A full-length cDNA clone expressing human SGLT2 (GenScript Corporation) was subcloned
T2 sequence (P31639 1-672): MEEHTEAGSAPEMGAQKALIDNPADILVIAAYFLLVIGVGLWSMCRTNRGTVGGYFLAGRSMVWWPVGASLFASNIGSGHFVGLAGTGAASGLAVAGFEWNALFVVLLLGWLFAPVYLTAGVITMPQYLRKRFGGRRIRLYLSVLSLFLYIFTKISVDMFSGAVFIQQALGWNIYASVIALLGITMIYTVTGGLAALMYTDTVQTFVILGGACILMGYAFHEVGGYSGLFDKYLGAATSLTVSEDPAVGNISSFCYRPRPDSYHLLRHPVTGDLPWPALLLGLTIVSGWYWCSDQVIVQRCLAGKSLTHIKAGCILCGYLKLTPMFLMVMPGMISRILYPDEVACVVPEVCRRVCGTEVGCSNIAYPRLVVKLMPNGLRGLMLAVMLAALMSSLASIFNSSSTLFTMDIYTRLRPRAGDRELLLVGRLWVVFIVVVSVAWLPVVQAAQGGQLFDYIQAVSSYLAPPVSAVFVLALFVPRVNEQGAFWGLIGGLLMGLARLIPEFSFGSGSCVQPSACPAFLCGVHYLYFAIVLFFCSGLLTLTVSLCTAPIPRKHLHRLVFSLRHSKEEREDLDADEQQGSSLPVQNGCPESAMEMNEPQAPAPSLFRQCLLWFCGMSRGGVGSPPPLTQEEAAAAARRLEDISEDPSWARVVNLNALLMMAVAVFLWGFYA
Description: Methyl-α-D-[U-14C]glucopyranoside uptake assay, cells stably expressing human SGLT2. Format: cell-based. The conditions noted are these: HEK293.ETN cells expressing human SGLT2, 1.5 h incubation, without human serum (symbols without parentheses).
Source text: A full-length cDNA clone expressing human SGLT2 (GenScript Corporation) was subcloned into […] and Not I sites of pEAK15 expression vector. Clones harboring the cDNA inserts were identified by restriction analysis.
Plasmid containing human SGLT2 was linearized with Nsi I and purified by agarose gel electrophoresis. Using Lipofectamine 2000 Transfection Reagent (Invitrogen Corporation), DNA was transfected into HEK293.ETN cells and cultured in Dulbecco's Modified Eagle Medium (DMEM) containing 10% fetal bovine serum (FBS) at 37° C. under 5% CO2 for 24 h. Transfectants were selected in the same growth medium supplemented with puromycin (Invitrogen Corporation) for two weeks. Puromycin-resistant cells were recovered and seeded on a fresh 96-well plate (single cell per well) and cultured in the presence of puromycin until cells became confluent. Puromycin-resistant clones were evaluated for SGLT2 activity in the methyl-α-D-[U-^14C]glucopyranoside uptake assay described below.
as §1

One may read the IC50 as the midpoint of a concentration-inhibition curve. On to `CCc1ccc(Cc2cc([C@@H]3O[C@H](CO)[C@@H](O)[C@H](O)[C@H]3O)c(COCC(C)=O)cc2Cl)cc1` [Compound K, 1-(5-chloro-4-(4-ethylbenzyl)-2-((2S,3R,4R,5S,6R)-3,4,5-trihydroxy-6-(hydroxymethyl)tetrahydro-2H-pyran-2-yl)benzyloxy)propan-2-one], for which the values for the IC50 on human SGLT1 and at human SGLT2 were above 10000 nM and below 1000 nM, respectively.
Turning to `CCc1ccc(Cc2cc([C@@H]3O[C@H](CO)[C@@H](O)[C@H](O)[C@H]3O)c(COCC(O)CO)cc2Cl)cc1` (stereo partly drawn) [Compound L, (2S,3R,4R,5S,6R)-2-(4-chloro-2-((2,3-dihydroxypropoxy)methyl)-5-(4-ethylbenzyl)phenyl)-6-(hydroxymethyl)tetrahydro-2H-pyran-3,4,5-triol], the IC50 on human SGLT1 is above 10000 nM; at human SGLT2, below 1000 nM.
In the case of `CCc1ccc(Cc2cc([C@@H]3O[C@H](CO)[C@@H](O)[C@H](O)[C@H]3O)c(COCC(C)O)cc2Cl)cc1` (stereo partly drawn) [Compound M, (2S,3R,4R,5S,6R)-2-(4-chloro-5-(4-ethylbenzyl)-2-((2-hydroxypropoxy)methyl)phenyl)-6-(hydroxymethyl)tetrahydro-2H-pyran-3,4,5-triol], the IC50 on human SGLT1 was above 10000 nM; on human SGLT2, below 1000 nM.
Taken in the same sequence, the figures for `C#CCOCc1cc(Cl)c(Cc2ccc(CC)cc2)cc1[C@@H]1O[C@H](CO)[C@@H](O)[C@H](O)[C@H]1O` [Compound N, (2S,3R,4R,5S,6R)-2-(4-chloro-5-(4-ethylbenzyl)-2-((prop-2-ynyloxy)methyl)phenyl)-6-(hydroxymethyl)tetrahydro-2H-pyran-3,4,5-triol] were above 10000 nM and below 1000 nM.
The corresponding values for `CCc1ccc(Cc2cc([C@@H]3O[C@H](CO)[C@@H](O)[C@H](O)[C@H]3O)c(COCCO)cc2Cl)cc1` [Compound O, (2S,3R,4R,5S,6R)-2-(4-chloro-5-(4-ethylbenzyl)-2-((2-hydroxyethoxy)methyl)phenyl)-6-(hydroxymethyl)tetrahydro-2H-pyran-3,4,5-triol] are 1000 to 10000 nM and below 1000 nM.
With `CCc1ccc(Cc2cc([C@@H]3O[C@H](CO)[C@@H](O)[C@H](O)[C@H]3O)c(COCC(F)F)cc2Cl)cc1` [Compound R, (2S,3R,4R,5S,6R)-2-(4-chloro-2-((2,2-difluoroethoxy)methyl)-5-(4-ethylbenzyl)phenyl)-6-(hydroxymethyl)tetrahydro-2H-pyran-3,4,5-triol], the figures for the IC50 on human SGLT1 and at human SGLT2 were above 10000 nM and below 1000 nM, respectively.
The corresponding values for `CCc1ccc(Cc2cc([C@@H]3O[C@H](CO)[C@@H](O)[C@H](O)[C@H]3O)c(COCCOC)cc2Cl)cc1` [Compound S, (2S,3R,4R,5S,6R)-2-(4-chloro-5-(4-ethylbenzyl)-2-((2-methoxyethoxy)methyl)phenyl)-6-(hydroxymethyl)tetrahydro-2H-pyran-3,4,5-triol] are above 10000 nM and below 1000 nM.
Taken in the same sequence, the figures for `CCc1ccc(Cc2cc([C@@H]3O[C@H](CO)[C@@H](O)[C@H](O)[C@H]3O)c(COCC(C)F)cc2Cl)cc1` (stereo partly drawn) [Compound T, (2S,3R,4R,5S,6R)-2-(4-chloro-5-(4-ethylbenzyl)-2-((2-fluoropropoxy)methyl)phenyl)-6-(hydroxymethyl)tetrahydro-2H-pyran-3,4,5-triol] were 1000 to 10000 nM and below 1000 nM.
For the molecule `CCc1ccc(Cc2cc([C@@H]3O[C@H](CO)[C@@H](O)[C@H](O)[C@H]3O)c(COCC(O)COC)cc2Cl)cc1` (stereo partly drawn) [Compound W, (2S,3R,4R,5S,6R)-2-(4-chloro-5-(4-ethylbenzyl)-2-((2-hydroxy-3-methoxypropoxy)methyl)phenyl)-6-(hydroxymethyl)tetrahydro-2H-pyran-3,4,5-triol], the values for the IC50 on human SGLT1 and at human SGLT2 were above 10000 nM and below 1000 nM, respectively.
